From ChEMBL document CHEMBL1201862, “PubChem BioAssay data set” (2004)
The source made the active and inactive calls. Rule as the data show it, for most assays here: actives have a measured EC50 and inactives only a lower limit.

Assays:
[1] = NIH-3T3 fibroblast cytotoxicity, dose response, cytotoxicity control, cell-based, fluorescence, Alamar Blue, secondary assay (AID 2327); format: functional;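 also: NIH-3T3 mouse fibroblasts cultured with fluconazole at 8 µg/mL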
[2] = test system: Streptococcus sp. 'group A'; assay: Streptococcus pyogenes SK(-)GAS viability under kanamycin – luminescence, BacTiterGlo, confirmation, counter-screen for streptokinase expression inhibitor project, dose response (AID 1900); format: functional, organism-based
[3] = Trypanosoma cruzi growth suppression in host cells – NIH3T3 host cells, beta-gal luminescence, confirmation (AID 2044); format: functional, cell-based;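 also: intracellular parasites grown in NIH/3T3 mouse fibroblasts as host cells; luminescent beta-galactosidase reporter signal from transgenic T. cruzi replicating inside host cells; inhibitors lower the luminescence signal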
[4] = molecular target: T1, Serine/threonine-protein phosphatase (Candida dubliniensis (strain CD36 / CBS 7987 / NCPF 3949 / NRRLY-17841) (Yeast), UniProt B9W6M3); assay: blockers of CaCl2-induced CDRE-lacZ signaling – S. cerevisiae, luminescence, secondary, dose response (AID 2388); format: functional, cell-based;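 also: yeast reporter cells carrying a calcineurin-responsive lacZ construct stimulated with calcium chloride; luminescent beta-galactosidase reporter signal in whole cells rather than isolated phosphatase activity; potency for inhibition where a drop in reporter signal means calcineurin blockade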
T1 sequence (B9W6M3 whole entry): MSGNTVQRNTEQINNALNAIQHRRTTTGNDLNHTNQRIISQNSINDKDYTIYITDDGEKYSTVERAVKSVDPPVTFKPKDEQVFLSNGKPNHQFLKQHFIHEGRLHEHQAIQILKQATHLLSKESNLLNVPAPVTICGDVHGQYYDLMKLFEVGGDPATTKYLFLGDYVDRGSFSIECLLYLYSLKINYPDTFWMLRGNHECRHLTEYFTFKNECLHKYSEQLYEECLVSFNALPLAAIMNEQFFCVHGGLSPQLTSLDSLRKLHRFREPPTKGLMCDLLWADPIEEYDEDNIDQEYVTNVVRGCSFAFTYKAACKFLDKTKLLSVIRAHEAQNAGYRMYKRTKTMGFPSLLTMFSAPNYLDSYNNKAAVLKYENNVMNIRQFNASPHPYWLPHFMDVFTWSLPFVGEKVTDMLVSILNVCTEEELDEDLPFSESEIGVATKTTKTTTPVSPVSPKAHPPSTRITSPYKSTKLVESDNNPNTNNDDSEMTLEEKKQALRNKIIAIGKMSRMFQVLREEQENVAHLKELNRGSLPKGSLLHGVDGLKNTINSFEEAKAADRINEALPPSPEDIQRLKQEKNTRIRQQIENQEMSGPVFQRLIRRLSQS

[5] = NIH3T3 cell viability loss – ATP luminescence, mouse fibroblasts, counter-screen, dose response (AID 2010); format: functional, cell-based;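 also: cells exposed to compound for about 90 hours before reading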
[6] = test system: Streptococcus; assay: GAS UMAA2166 growth inhibition – luminescence, BacTiterGlo, counter-screen for streptokinase expression inhibitor project, dose response (AID 1915); format: functional, organism-based;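 also: potency for reduction of bacterial viability or growth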
[7] = Counterscreen for AddAB inhibitors: absorbance-based bacterial cell-based high throughput dose response assay for inhibitors of bacterial viability. [Related pubchem assays (depositor defined):AID435030, AID449728, AID449731, AID488942, AID488955, AID488956]; format: functional
[8] = molecular target: Heat shock protein HSP 90-alpha (Homo sapiens, UniProt P07900); format: functional, organism-based
[9] = test system: INS1; assay: INS-1E survival protection against cytokine death – cell-based, luminescence, retest, dose response (AID 449756); format: functional; conditions: Rattus norvegicus;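 also: cell death triggered by IL-1 beta plus TNF-alpha plus IFN-gamma mixture; protective hits raise ATP signal compared with cytokine alone wells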
[10] = molecular target: ATP-dependent molecular chaperone HSP82 (Candida albicans (strain WO-1) (Yeast), UniProt C4YTQ8); assay: steroid-induced GRE reporter decrease in yeast – S. cerevisiae, luminescence, Hsp90 inhibitor project, dose response (AID 2400); format: functional, cell-based;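 also: beta-galactosidase luminescence from glucocorticoid response element reporter as proxy for Hsp90 function; inhibitor potency where signal loss means Hsp90 inhibition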
Sequence of ATP-dependent molecular chaperone HSP82 (C4YTQ8 whole entry): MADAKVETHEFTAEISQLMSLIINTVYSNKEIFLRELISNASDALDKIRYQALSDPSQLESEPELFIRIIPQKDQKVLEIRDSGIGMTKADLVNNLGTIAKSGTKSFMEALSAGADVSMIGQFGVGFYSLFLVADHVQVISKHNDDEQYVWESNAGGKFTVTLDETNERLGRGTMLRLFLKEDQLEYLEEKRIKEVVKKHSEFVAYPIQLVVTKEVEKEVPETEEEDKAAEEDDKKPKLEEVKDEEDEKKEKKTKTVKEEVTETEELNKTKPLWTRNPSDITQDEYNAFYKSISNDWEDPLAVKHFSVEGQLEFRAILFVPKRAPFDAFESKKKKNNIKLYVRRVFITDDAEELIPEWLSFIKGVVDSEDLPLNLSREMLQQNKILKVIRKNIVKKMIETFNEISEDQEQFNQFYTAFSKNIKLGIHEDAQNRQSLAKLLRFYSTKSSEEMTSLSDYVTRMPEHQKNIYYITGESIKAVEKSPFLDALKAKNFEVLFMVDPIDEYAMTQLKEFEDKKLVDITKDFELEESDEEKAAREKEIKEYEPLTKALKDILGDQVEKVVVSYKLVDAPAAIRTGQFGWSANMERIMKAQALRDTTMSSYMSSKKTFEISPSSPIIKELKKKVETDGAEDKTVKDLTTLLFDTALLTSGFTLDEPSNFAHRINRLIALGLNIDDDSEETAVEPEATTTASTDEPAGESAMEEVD

[11] = test system: HEK293; assay: EBV LMP1 TES2 canonical NF-kB signalling blockers – cell-based, HEK293, luciferase, cherry-pick, dose response (AID 588343); format: functional; conditions: Homo sapiens
[12] = molecular target: T2, Replicative DNA helicase DnaB (Mycobacterium tuberculosis, UniProt P9WMR3); assay: DnaB intein splicing inhibitors, dose response, biochemical, cell-free fluorescence (AID 449749); format: functional
T2 sequence (P9WMR3 whole entry): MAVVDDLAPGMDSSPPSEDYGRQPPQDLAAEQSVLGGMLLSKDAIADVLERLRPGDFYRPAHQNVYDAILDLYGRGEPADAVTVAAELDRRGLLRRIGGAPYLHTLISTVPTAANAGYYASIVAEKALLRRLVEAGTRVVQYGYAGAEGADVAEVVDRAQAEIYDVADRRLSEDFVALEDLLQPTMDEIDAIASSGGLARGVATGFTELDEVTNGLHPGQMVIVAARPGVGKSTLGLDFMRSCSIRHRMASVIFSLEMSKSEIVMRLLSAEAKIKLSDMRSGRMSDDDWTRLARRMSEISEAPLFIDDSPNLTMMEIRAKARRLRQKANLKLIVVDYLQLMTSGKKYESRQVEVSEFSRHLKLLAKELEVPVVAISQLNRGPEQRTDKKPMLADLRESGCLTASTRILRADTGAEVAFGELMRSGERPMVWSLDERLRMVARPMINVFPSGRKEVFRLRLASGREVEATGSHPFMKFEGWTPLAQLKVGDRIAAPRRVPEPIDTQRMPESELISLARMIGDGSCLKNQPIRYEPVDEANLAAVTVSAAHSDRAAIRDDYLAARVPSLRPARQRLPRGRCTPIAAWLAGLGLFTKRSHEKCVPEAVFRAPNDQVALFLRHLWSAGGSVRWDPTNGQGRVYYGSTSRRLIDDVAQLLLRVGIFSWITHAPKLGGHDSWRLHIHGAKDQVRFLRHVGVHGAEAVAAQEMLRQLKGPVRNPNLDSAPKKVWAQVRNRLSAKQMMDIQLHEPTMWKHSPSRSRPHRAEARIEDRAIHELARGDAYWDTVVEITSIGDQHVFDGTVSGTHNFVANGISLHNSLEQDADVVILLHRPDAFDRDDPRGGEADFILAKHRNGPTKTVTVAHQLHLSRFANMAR

| SMILES | EC50 [1] | EC50 [2] | EC50 [3] | EC50 [4] | EC50 [5] | EC50 [6] | IC50 [7] | AC50 [8] | AC50 [9] | EC50 [10] | AC50 [11] | AC50 [12] |
| --- | --- | --- | --- | --- | --- | --- | --- | --- | --- | --- | --- | --- |
| CCCCC(=O)NC(c1ccco1)c1cc(Cl)c2cccnc2c1O (stereo not drawn) | 25 µM (active) | 4 µM (active) | 1.91 µM (active) | > 180 µM (inactive) | 3.65 µM (active) | 8.22 µM (active) | > 119 µM (inactive) | 4.37 µM (active) | 2.74 µM (active) | > 160 µM (inactive) | – | – |
| CCCCC(=O)NC(c1ccc(Cl)cc1)c1ccc2cccnc2c1O (stereo not drawn) | 16.6 µM (active) | – | 0.268 µM (active) | 24.8 µM (active) | 0.617 µM (active) | – | > 119 µM (inactive) | 15 µM (active) | 0.476 µM (active) | 29.1 µM (active) | 4.59 µM (active) | – |
| COc1ccc2noc3c2c1C(=O)c1ccccc1-3 | – | – | – | – | – | – | – | – | – | – | – | 1.18 µM (inconclusive) |
| CCc1ccc2c(c1)C(NC(C)=O)C(=O)N2CCN1CCOCC1 (stereo not drawn) | – | – | – | – | – | – | – | – | – | – | – | 22.3 µM (active) |
| O=C(N/N=C/c1ccccc1O)/C(O)=C\C1=NC2(CCCC2)Cc2ccccc21 | 10.5 µM (active) | 3.18 µM (active) | – | > 180 µM (inactive) | – | 11.2 µM (active) | > 119 µM (inactive) | – | – | 22.1 µM (active) | 33.4 µM (active) | – |
